Experimental data published in patent US20180338897A1, “ORAL COMPOSITIONS FOR REDUCING DENTAL STAINS” (New York University, priority 2017, published 2018).

Key:
yeast [1] = test: Disk diffusion on YPD agar plates with yeast cultures; type: cell-based, Saccharomyces cerevisiae; details: plates incubated at 30° C.
Protocol: (§1) The following materials were used: peptone, dextrose/glucose, marmite/yeast extract, agar, 0.1 M EDTA in MOPS solution, 0.1 M C-2 in MOPS solution, 0.1 M C-6 in MOPS solution, and […] Deferiprone in MOPS solution, and water.
Plate media was prepared containing 2% dextrose, 2% peptone, 0.36 g of yeast extract, and 1.5% agar in 1 L of water. The mixture was heated to dissolve the ingredients, and then autoclaved. 10 mL of the media was added to petri dishes to prepare plates.
(§2) The yeast culture was prepared by adding dry baker's yeast to warm water and streaked on the media plates. Cultures were allowed to grow for 16-24 hours.
Disks to which C-2, C-6, EDTA, or Deferiprone were added were added to petri dishes containing yeast cultures. The plates were incubated at 30° C. The effect on yeast growth was visualized and measured over time. The zone sizes were measured to the nearest millimeter using a ruler or caliper, including the diameter of the disk in the measurement. The measurements were rounded up to the nearest millimeter.

yeast [2] = test: Yeast growth curve in liquid YPD media, absorbance at 400 nm; type: cell-based, Saccharomyces cerevisiae; details: for Final absorbance / Initial absorbance: 400 nm; for Final absorbance: after 24 hr; for Effect on yeast growth: growth curve over 24 hr, FIG. 8; for Initial absorbance: start of growth curve
Protocol: as §1, §2
The growth curve experiment were carried out by measuring the inhibition of yeast culture in the presence of EDTA, C-2, C-6, and Deferiprone over time via absorbance at 400 nm (see FIG. 8).
The growth curve was used to measure the rate of growth of yeast over an 8 hour period with a final measurement after 24 hours. No growth is seen in the presence of EDTA. C-2, C-6, and Deferiprone show different levels of effectiveness (see FIG. 8).

[3] = Destaining of boiling beads stained with tannic acid and iron(III) chloride (Example 2); details: for Destaining: Experiment #1, 10 mL 0.1M solution on stained boiling beads; for Removal of stains (conclusion): Experiments #1 and #2, comparison with EDTA
Protocol: To simulate the effects of staining caused by coffee and tea, tannic acid and iron(III) chloride solutions were prepared.
To prepare the tannic acid solution, solid tannic acid was used. 0.1M FeCl3.6H2O and added to 100 mL of distilled water. 0.1 M solutions of MOPS buffer was prepared. Then 0.1M solutions of EDTA in distilled water, C-2 in MOPS, C-6 in MOPS, and deferiprone in MOPS, were prepared. For a tooth like structure, boiling beads made from synthetic silicate were used.
Methods were as follows: Experiment #1: Comparison of EDTA, C-2, and deferiprone destaining: The procedure was broken down into 2 phases: staining and destaining. In the staining phase, 7 beads were added to each of the 12 vials. 3 vials were labeled control, 3 were labeled EDTA, 3 were labeled C-2, and 3 were labeled Deferiprone. 0.1 mL of the tannic acid and iron(III) chloride were pipetted onto the boiling beads in the vials. After mixing, 9.8 mL of 0.1 M, pH 7 MOPS was added. The vials were left to stand for a week at room temperature to complete the staining. For the destaining phase, the liquid in each vial was discarded and the beads were rinsed with distilled water 3 times. Then the solutions were added to the vials according to Table 1, swirled and left for the destaining phase.
Experiment #2: Comparison of deferiprone, C-2, and C-6 destaining: The same procedure was followed for Experiment 2 except EDTA was replaced with C-6 solution.

[4] = tested on: yeast (Saccharomyces cerevisiae); test: Inhibition of yeast growth when prepared with dextrose-agar plates; type: cell-based
Source text: The compounds of the present disclosure can reduce stains from the surfaces of teeth. The present compounds may also have anti-microbial activity. […] Thus, the compounds and compositions of the present disclosure may be used for reduction of teeth stains and/or as antimicrobials.

[5] = Dissolution of deferiprone in distilled water; type: physicochemical; details: 0.1 M in distilled water; room temperature; magnetic bar
Protocol: (§3) 0.1 M of Deferiprone solution was made by mixing 1.3957 g and 100 mL of distilled water into a volumetric flask. […] The tables below (Table 5 and Table 6) summarizes the contents of the vials used in this part of the experiment.

[6] = Destaining of stained beads and sand white quartz (Example 3); details: for Relative destaining effectiveness: comparison of C11, EDTA and Deferiprone
Protocol: Tannic acid and iron chloride solutions were prepared as in Example 2. In order to simulate a tooth like structure, boiling beads made from a synthetic silicate (Techniservice) and white quartz sand were used. Four vials were prepared with the following solutions and solids (Table 3).
0.1 mL of the tannic acid and iron(III) chloride were pipetted into each vial. They were mixed on a vortex for 10 seconds. Then, 9.8 mL of 0.1 M, pH 7.4 MOPS was added to each vial to adjust the pH to a neutral level. MOPS was used to mimic the pH of saliva. The contents were mixed again. […] The vials were left to stand for a week at room temperature. The following table (Table 4) summarizes the components added to the tooth-like solids.
The solids in the vials were washed with approximately 10 mL of MOPS. This step was to simulate a wash of the “tooth” like structure with a “saliva” like buffer. The vials were left for a week to allow time for unstained areas of the beads to stain.
After the structures were stained, experiments were carried out to test if the stains could be removed. Approximately 5 mL of C11 (1-(11′-Carboxydecyl)-3-Hydroxy-2-Methyl-4-Pyridinone) solution was pipetted into Vials #1 and #3. Vials #2 and #4 served as controls. The contents of the vials were then mixed by vortexing. The vials were left to de-stain for a week. After a week, the liquid was drained from the vials and a fresh 5 mL of C11 was pipetted. Vials were left to de-stain for another week.
EDTA was prepared as follows. 100 mM of EDTA was made by adding 9.164 g to 250 mL of deionized water. The solution was stirred for 10 minutes, then placed on a heater.
Three new vials were filled with 2.2346 g, 2.0195 g, 2.2600 g of beads followed by the salt (0.1 mL), then the tannic acid (0.1 mL), and finally the MOPS. […] Three other vials were filled with 2.115 g, 2.009 g, 2.115 g of sand white quartz and the solutions were added in sequence. […] The solutions were left to continue to stain for a week. After a week, all the vials were rinsed with 10 mL of MOPS. Supernatant was removed by using filter paper. 10 mL of MOPS was then added and the contents were stirred then left to sit for a week.
1 mL of the EDTA was pipetted into each vial. The resulting concentration was 0.01 M of EDTA in each vial. Vials were then mixed to ensure proper contact with the MOPS and EDTA molecules. Vials were left to sit for a week.
Two more pairs of vials (4th and 5th pairs) were prepared—one with the beads and the other with the sand. MOPS solution was added, but not EDTA. […] Two more pairs of vials (6th and 7th pairs) were prepared, again, one with beads and the other with sand. The purpose of these controls was to test if the destaining process could be accelerated. The EDTA concentration was increased from 0.01 M to 0.1 M and 10 mL of it was subsequently added to the vials along with 10 mL of MOPS.
as §3
These vials were left to stand for a week. After the week the vials were rinsed with distilled water until the liquid that the beads/sand were suspended in were clear.
The next set of experiments was carried out to determine how quickly the compositions were able to remove the stains.
Beads and sand solutions were rinsed with 10 mL of distilled water. […] The solutions were prepared as follows: (Table 11).

Cc1c(O)c(=O)ccn1CC(=O)O [C-2, 1-Carboxymethyl-3-Hydroxy-2-Methyl-Pyrid-4-one]
Zone diameter (including the disk) (yeast [1]): 1.55 cm
Final absorbance (yeast [2]): 1.761
Effect on yeast growth (yeast [2]): effective, although the effect was less than EDTA and Deferiprone
Destaining [3]: Destaining was immediately noted
Removal of stains (conclusion) [3]: effective in removal of stains and act to remove stains faster than EDTA
Growth of yeast ([4]; 0.001 M): inhibited the growth of yeast

Cc1c(O)c(=O)ccn1CCCCCC(=O)O [C-6, 1-(6′-Carboxypentyl)-3-Hydroxy-2-Methyl-4-Pyridinone]
Zone diameter (including the disk) (yeast [1]): 1.45 cm
Final absorbance (yeast [2]): 1.840
Effect on yeast growth (yeast [2]): effective, although the effect was less than EDTA and Deferiprone
Removal of stains (conclusion) [3]: effective in removal of stains and act to remove stains faster than EDTA
Growth of yeast ([4]; 0.001 M): inhibited the growth of yeast

Cc1c(O)c(=O)ccn1C [Deferiprone, 3-hydroxy-1,2-dimethylpyridin-4(1H)-one]
Final absorbance (yeast [2]): 0.762
Initial absorbance (yeast [2]): 0.389
Solubility [5]: slow solubility was observed
Destaining [3]: Destaining was immediately noted
Removal of stains (conclusion) [3]: effective in removal of stains and act to remove stains faster than EDTA
Growth of yeast ([4]; 0.003 M): inhibited the growth of yeast
Relative destaining effectiveness [6]: most effective
Duration of effective destaining ([6]; speed experiment, all Deferiprone dilutions (10 mL, 1 mL, 0.1 mL, 0.01 mL of 0.1M)): For about an hour the destaining for all the vials except the controls continued to be effective
Stain removal immediately after addition ([6]; speed experiment, vials A3 and B3, 10 mL of 0.1M Deferiprone): the stains were removed
Stained removed? ([6]; vial A2: beads, 10 mL of 0.1M deferiprone, after a week): Yes
Stained removed? ([6]; vial A3: beads, 1 mL of 0.1M deferiprone & 9 mL of distilled water, after a week): Yes
Stained removed? ([6]; vial B2: sand white quartz, 10 mL of 0.1M deferiprone, after a week): Yes
Stained removed? ([6]; vial B3: sand white quartz, 1 mL of 0.1M deferiprone & 9 mL of distilled water, after a week): Yes
Discoloration of the solution after addition ([6]; vials A2 and B2 (beads, sand), 10 mL of 0.1M deferiprone): immediate discoloration
Discoloration of the solution after addition ([6]; vials A3 and B3 (beads, sand), 1 mL of 0.1M deferiprone & 9 mL of distilled water): relatively slower discoloration

O=C(O)CN(CCN(CC(=O)O)CC(=O)O)CC(=O)O [EDTA, ethylenediaminetetraacetic acid]
Final absorbance (yeast [2]): 0.481
Initial absorbance (yeast [2]): 0.375
Effect on yeast growth (yeast [2]): No growth
Destaining [3]: slight difference after 15 minutes
Destaining of beads ([6]; 0.01 M EDTA in MOPS, beads, after a week): partially destained
Destaining of sand (colour of solution) ([6]; 0.01 M EDTA in MOPS, white quartz sand, after a week): solutions were clear
Bleaching of beads and sand ([6]; EDTA 0.01 M to 0.1 M, beads and sand, after over a month): most of the beads and sand were bleached
Relative destaining effectiveness [6]: followed by EDTA
